Each compound was assayed against T1, Androgen Receptor (AR) (Homo sapiens, UniProt P10275, T878A) (assay: LNCaP Androgen Receptor Down-regulation Cell Assay (immunofluorescence end point)). Conditions: LNCaP prostate carcinoma cells, compound incubation 20-22 hours, 50% reduction of the AR signal; read-out: Androgen Receptor Down-regulation Assay (a) IC50/μM.
T1 construct: cell based immuno-fluorescence assay using the LNCaP prostate epithelial cell line; endogenous in cells; host or cells: LNCaP clone FGC (ATCC CRL-1740)
T1 sequence (P10275 1-920 T878A): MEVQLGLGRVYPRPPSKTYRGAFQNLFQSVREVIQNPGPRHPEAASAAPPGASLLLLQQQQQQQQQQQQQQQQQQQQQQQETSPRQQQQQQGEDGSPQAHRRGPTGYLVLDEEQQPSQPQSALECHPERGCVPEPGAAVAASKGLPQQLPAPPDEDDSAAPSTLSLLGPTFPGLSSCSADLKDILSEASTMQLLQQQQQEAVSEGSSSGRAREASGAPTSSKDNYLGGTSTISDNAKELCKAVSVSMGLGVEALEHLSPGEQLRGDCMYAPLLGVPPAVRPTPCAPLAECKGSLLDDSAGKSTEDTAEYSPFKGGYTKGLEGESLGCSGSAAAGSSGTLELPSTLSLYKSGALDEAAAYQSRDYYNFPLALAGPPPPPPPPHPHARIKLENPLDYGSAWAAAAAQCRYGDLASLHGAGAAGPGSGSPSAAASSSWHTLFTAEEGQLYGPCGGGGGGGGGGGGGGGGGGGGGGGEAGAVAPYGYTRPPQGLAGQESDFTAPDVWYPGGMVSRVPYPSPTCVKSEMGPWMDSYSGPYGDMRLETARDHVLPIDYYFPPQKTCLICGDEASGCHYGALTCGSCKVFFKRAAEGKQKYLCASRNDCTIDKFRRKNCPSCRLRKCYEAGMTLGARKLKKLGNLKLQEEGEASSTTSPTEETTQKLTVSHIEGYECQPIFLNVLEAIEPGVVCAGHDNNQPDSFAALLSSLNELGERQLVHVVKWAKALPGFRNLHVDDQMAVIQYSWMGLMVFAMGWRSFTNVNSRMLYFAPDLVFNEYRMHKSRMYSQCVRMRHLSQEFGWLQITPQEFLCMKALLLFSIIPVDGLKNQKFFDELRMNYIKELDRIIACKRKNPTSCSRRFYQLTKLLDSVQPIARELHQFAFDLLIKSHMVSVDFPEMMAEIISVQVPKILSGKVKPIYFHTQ
Format: cell-based
Procedure, shortened: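 LNCaP cells in medium with 5% charcoal-stripped FBS were plated overnight, then treated with a compound dilution series for 20-22 h at 37° C. After fixation, permeabilisation and immunostaining, AR-associated green fluorescence was quantified by laser-scanning microplate cytometry; AR down-regulation expressed as IC50 from fitted dose-response curves.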

| DC50 [µM] | SMILES |
| --- | --- |
| 2.6 | N#Cc1ccccc1OC1CCN(c2ccc3nnc(C(F)(F)F)n3n2)CC1 [Example 654] |
| 1 | CN1CCN(CCCC(=O)Nc2cccc(C3CCN(c4ccc5nnc(C(F)(F)F)n5n4)CC3)c2)CC1 [Example 659, 4-(4-methylpiperazin-1-yl)-N-[3-[1-[3-(trifluoromethyl)-[1,2,4]triazolo[4,3-b]pyridazin-6-yl]piperidin-4-yl]phenyl]butanamide] |
| 5.4 | COCCCC(=O)Nc1cccc(C2CCN(c3ccc4nnc(C(F)(F)F)n4n3)CC2)c1 [Example 662, 4-methoxy-N-[3-[1-(3-(trifluoromethyl)-[1,2,4]triazolo[4,3-b]pyridazin-6-yl)piperidin-4-yl]phenyl]butanamide] |
| 0.94 | CN1CCN(CCCC(=O)Nc2ccc(C3CCN(c4ccc5nnc(C(F)(F)F)n5n4)CC3)cc2)CC1 [Example 666] |
| 1 | O=C(CCCN1CCCC1)Nc1ccc(C2CCN(c3ccc4nnc(C(F)(F)F)n4n3)CC2)cc1 [Example 667] |
| 1.1 | O=C(CCCN1CCOCC1)Nc1ccc(C2CCN(c3ccc4nnc(C(F)(F)F)n4n3)CC2)cc1 [Example 668] |
| 1.6 | FC(F)(F)c1nnc2ccc(N3CCC(c4cccc(OCCN5CCCC5)c4)CC3)nn12 [Example 671] |
| 0.58 | FC(F)(F)c1nnc2ccc(N3CCC(c4cccc(OCCN5CCNCC5)c4)CC3)nn12 [Example 672] |
| 0.56 | FC(F)(F)c1nnc2ccc(N3CCC(c4cccc(OCCN5CCOCC5)c4)CC3)nn12 [Example 676] |
| 4.5 | CN1CCC(Oc2cccc(C3CCN(c4ccc5nnc(C(F)(F)F)n5n4)CC3)c2)CC1 [Example 677] |
| 0.58 | Cn1nccc1CCOc1cccc(C2CCN(c3ccc4nnc(C(F)(F)F)n4n3)CC2)c1 [Example 682] |
| 4.2 | O=C(NCCN1CCCC1)c1cccc(OC2CCN(c3ccc4nnc(C(F)(F)F)n4n3)CC2)c1 [Example 686] |
| 6.6 | O=C(c1cccc(OC2CCN(c3ccc4nnc(C(F)(F)F)n4n3)CC2)c1)N1CCNCC1 [Example 688] |
| 4.2 | CN(C)CCNC(=O)c1cccc(OC2CCN(c3ccc4nnc(C(F)(F)F)n4n3)CC2)c1 [Example 696] |
| > 22 | O=C(NCCO)c1cccc(OC2CCN(c3ccc4nnc(C(F)(F)F)n4n3)CC2)c1 [Example 697] |
| 2.1 | COCCN(C)C(=O)c1cccc(OC2CCN(c3ccc4nnc(C(F)(F)F)n4n3)CC2)c1 [Example 699] |
| 7.1 | O=C(c1cccc(OC2CCN(c3ccc4nnc(C(F)(F)F)n4n3)CC2)c1)N1CC[C@H](O)C1 [Example 700] |
| 5.5 | CN1CCC(NC(=O)c2cccc(OC3CCN(c4ccc5nnc(C(F)(F)F)n5n4)CC3)c2)CC1 [Example 703] |
| 6.2 | CN1CCN(CC(=O)Nc2ccc(C3CCN(c4ccc5nnc(C(F)(F)F)n5n4)CC3)cc2)CC1 [Example 708, 2-(4-methylpiperazin-1-yl)-N-[4-[1-[3-(trifluoromethyl)[1,2,4]triazolo[4,3-b]pyridazin-6-yl]piperidin-4-yl]phenyl]acetamide] |
| 2.5 | CN1CCN(CC(=O)Nc2cccc(C3CCN(c4ccc5nnc(C(F)(F)F)n5n4)CC3)c2)CC1 [Example 711] |
| 3 | O=C(CN1CCCC1)Nc1cccc(C2CCN(c3ccc4nnc(C(F)(F)F)n4n3)CC2)c1 [Example 712] |
| 0.81 | FC(F)(F)c1nnc2ccc(N3CCC(Oc4cccc(Cl)n4)CC3)nn12 [Example 716] |
| 3.6 | FC(F)(F)c1nnc2ccc(N3CCC(Oc4cccnc4)CC3)nn12 [Example 718] |
| 3.5 | FC(F)(F)c1ccc(OC2CCN(c3ccc4nnc(C(F)(F)F)n4n3)CC2)nc1 [Example 719] |

The remaining lines, values behind:

| SMILES | DC50 [µM] |
| --- | --- |
| CN1CCC(NC(=O)c2cccc(C3CCN(c4ccc5nnc(C(F)(F)F)n5n4)CC3)c2)CC1 [Example 651] | 1.9 |
| FC(F)(F)c1ccccc1OC1CCN(c2ccc3nnc(C(F)(F)F)n3n2)CC1 [Example 653] | 1 |
| CC(=O)Nc1cccc(C2CCN(c3ccc4nnc(C(F)(F)F)n4n3)CC2)c1 [Example 655, N-[3-[1-[3-(trifluoromethyl)[1,2,4]triazolo[4,3-b]pyridazin-6-yl]piperidin-4-yl]phenyl]acetamide] | 1.1 |
| O=C(CCCN1CCCC1)Nc1cccc(C2CCN(c3ccc4nnc(C(F)(F)F)n4n3)CC2)c1 [Example 660] | 0.63 |
| O=C(CCCN1CCOCC1)Nc1cccc(C2CCN(c3ccc4nnc(C(F)(F)F)n4n3)CC2)c1 [Example 661] | 0.65 |
| CN1CCC(C(=O)Nc2ccc(C3CCN(c4ccc5nnc(C(F)(F)F)n5n4)CC3)cc2)CC1 [Example 663] | 2.7 |
| COCC(=O)Nc1ccc(C2CCN(c3ccc4nnc(C(F)(F)F)n4n3)CC2)cc1 [Example 664] | 3.6 |
| COCCCC(=O)Nc1ccc(C2CCN(c3ccc4nnc(C(F)(F)F)n4n3)CC2)cc1 [Example 669] | 0.6 |
| CN(C)CCCOc1cccc(C2CCN(c3ccc4nnc(C(F)(F)F)n4n3)CC2)c1 [Example 670] | 0.67 |
| FC(F)(F)c1nnc2ccc(N3CCC(c4cccc(OCCCN5CCNCC5)c4)CC3)nn12 [Example 673] | 0.73 |
| Cc1cc(COc2cccc(C3CCN(c4ccc5nnc(C(F)(F)F)n5n4)CC3)c2)no1 [Example 674] | 1.1 |
| CN(C)CCOc1cccc(C2CCN(c3ccc4nnc(C(F)(F)F)n4n3)CC2)c1 [Example 675] | 1.5 |
| FC(F)(F)c1nnc2ccc(N3CCC(c4cccc(OCc5cnco5)c4)CC3)nn12 [Example 680] | 0.6 |
| COCCOc1cccc(C2CCN(c3ccc4nnc(C(F)(F)F)n4n3)CC2)c1 [Example 684] | 0.69 |
| CN(CCO)C(=O)c1cccc(OC2CCN(c3ccc4nnc(C(F)(F)F)n4n3)CC2)c1 [Example 685] | 5.7 |
| CN1CCN(C(=O)c2cccc(OC3CCN(c4ccc5nnc(C(F)(F)F)n5n4)CC3)c2)CC1 [Example 687] | 3.8 |
| COCCNC(=O)c1cccc(OC2CCN(c3ccc4nnc(C(F)(F)F)n4n3)CC2)c1 [Example 689] | 4.1 |
| O=C(c1cccc(OC2CCN(c3ccc4nnc(C(F)(F)F)n4n3)CC2)c1)N1CC[C@@H](O)C1 [Example 691] | > 28 |

| SMILES | DC50 [µM] |
| --- | --- |
| O=C(c1cccc(OC2CCN(c3ccc4nnc(C(F)(F)F)n4n3)CC2)c1)N1CCCC1 [Example 692] | 4.2 |
| O=C(c1cccc(OC2CCN(c3ccc4nnc(C(F)(F)F)n4n3)CC2)c1)N1CCOCC1 [Example 693] | 2.3 |
| CNC(=O)c1cccc(OC2CCN(c3ccc4nnc(C(F)(F)F)n4n3)CC2)c1 [Example 694] | 3.2 |
| CCNC(=O)c1cccc(OC2CCN(c3ccc4nnc(C(F)(F)F)n4n3)CC2)c1 [Example 695] | 3.3 |
| O=C(NCCN1CCOCC1)c1cccc(OC2CCN(c3ccc4nnc(C(F)(F)F)n4n3)CC2)c1 [Example 698] | 5.6 |
| Cc1cc(CNC(=O)c2cccc(OC3CCN(c4ccc5nnc(C(F)(F)F)n5n4)CC3)c2)no1 [Example 702] | > 12 |
| CN1CCN(CCNC(=O)c2cccc(OC3CCN(c4ccc5nnc(C(F)(F)F)n5n4)CC3)c2)CC1 [Example 704] | 4.2 |
| O=C(NCCn1cccn1)c1cccc(OC2CCN(c3ccc4nnc(C(F)(F)F)n4n3)CC2)c1 [Example 705] | 5.3 |
| Cn1ccc(CNC(=O)c2cccc(OC3CCN(c4ccc5nnc(C(F)(F)F)n5n4)CC3)c2)n1 [Example 706] | 2.9 |
| O=C(NCc1cocn1)c1cccc(OC2CCN(c3ccc4nnc(C(F)(F)F)n4n3)CC2)c1 [Example 707] | 7.9 |
| O=C(CN1CCCC1)Nc1ccc(C2CCN(c3ccc4nnc(C(F)(F)F)n4n3)CC2)cc1 [Example 709] | 1.7 |
| O=C(CN1CCOCC1)Nc1ccc(C2CCN(c3ccc4nnc(C(F)(F)F)n4n3)CC2)cc1 [Example 710] | 2.1 |
| O=C(CN1CCOCC1)Nc1cccc(C2CCN(c3ccc4nnc(C(F)(F)F)n4n3)CC2)c1 [Example 713] | 0.81 |
| FC(F)(F)c1nnc2ccc(N3CCC(Oc4ncc(Cl)cn4)CC3)nn12 [Example 714] | > 9.9 |
| FC(F)(F)c1nnc2ccc(N3CCC(Oc4cccnc4Br)CC3)nn12 [Example 717] | 2.9 |
| FC(F)(F)c1nnc2ccc(N3CCC(Oc4ccc(Cl)nc4)CC3)nn12 [Example 720] | 2.7 |
| FC(F)(F)c1nnc2ccc(N3CCC(Oc4ccc(Br)cn4)CC3)nn12 [Example 721] | 2.9 |
| FC(F)(F)c1nnc2ccc(N3CCC(Oc4cncc(Br)c4)CC3)nn12 [Example 722] | 4.1 |

From US8003649B2 (AstraZeneca AB, priority 2007, dated 2011)
